Results reported in US20240091195A1 (SANWA KAGAKU KENKYUSHO CO., LTD., priority 2021, published 2024).

Assays:
[1] = test system: rat pilocarpine-induced salivary secretion model; test: Pilocarpine-induced salivary secretion, 0.5 cm^2 transdermal absorptive preparations (Test Example 2); assay type: in vivo, Hairless rats (HWY/Slc); settings: 0.5 cm^2 applied to neck once a day, pilocarpine hydrochloride 0.5 mg/kg i.v., n=5
Protocol: Under isoflurane anesthesia, 0.5 cm^2 of each of the transdermal absorptive preparations (including a placebo preparation) containing various glycopyrronium salts produced in accordance with Preparation Production Example 1, Comparative Preparation Production Examples 2 and 4, and Reference Preparation Production Example 1 was applied to the necks of the rats once a day every 24 hours for 2 days.
The amount of saliva secreted was calculated from the difference between the weights of the cotton ball before and after collection of saliva, and taking the average value of the amount of saliva secreted of the placebo group as 100%, the salivary secretion proportion of each individual was calculated from the following (equation).

[2] = test system: rat pilocarpine-induced salivary secretion model; test: Pilocarpine-induced salivary secretion, 0.25 cm^2 transdermal absorptive preparations (Test Example 3); settings: 0.25 cm^2 applied to neck once a day, pilocarpine hydrochloride 0.5 mg/kg i.v.
[3] = dissolved in ethanol, stability after 24 hours

Q: Which results are given for `C[N+]1(C)CCC(OC(=O)C(O)(c2ccccc2)C2CCCC2)C1.O=C([O-])CNC(=O)c1ccccc1` (racemic) [Glycopyrronium hippurate, (3RS, 2SR)-glycopyrronium hippurate]?
A: salivary secretion suppressive effect compared with placebo group ([1]; Day 1 of application (23 hours after first application)): significant salivary secretion suppressive effects; salivary secretion suppressive effect compared with placebo group ([2]; Day 1 of application): significant effect; salivary secretion suppressive effect compared with placebo group ([2]; Day 2 of application): significant effect only on Day 1 of application

Q: With `C[N+]1(C)CCC(OC(=O)C(O)(c2ccccc2)C2CCCC2)C1.O=C([O-])c1ccccc1` (stereo not drawn) [Glycopyrronium benzoate, glycopyrronium benzoate] as the compound, how does the decomposition in ethanol [3] read?
A: 10%

Q: Which “salivary secretion suppressive effect compared with placebo group” value ([1]; Day 1 of application (23 hours after first application), listed as glycopyrronium-bromide) does the source give for `C[N+]1(C)CCC(OC(=O)C(O)(c2ccccc2)C2CCCC2)C1` (stereo not drawn) [Glycopyrronium bromide, (3RS, 2SR)-glycopyrronium bromide] here?
A: no significant effect

Q: And the “salivary secretion suppressive effect compared with placebo group” value ([2]; Day 1 of application, listed as glycopyrronium bromide)?
A: did not show any significant effect

Q: And the “salivary secretion suppressive effect compared with placebo group” value ([2]; Day 2 of application, listed as glycopyrronium bromide)?
A: did not show any significant effect

Q: Which “salivary secretion suppressive effect compared with placebo group” value ([1]; Day 1 of application (23 hours after first application), listed as glycopyrronium salicylate) does the source give for `C[N+]1(C)CCC(OC(=O)C(O)(c2ccccc2)C2CCCC2)C1` (stereo not drawn) [Glycopyrronium salicylate, 3-(2-cyclopentyl-2-hydroxy-2-phenylacetoxy)-1,1-dimethylpyrrolidium salicylate] here?
A: significant salivary secretion suppressive effects

Q: And the “salivary secretion suppressive effect compared with placebo group” value ([1]; Day 2 of application (47 hours after first application))?
A: strongest salivary secretion suppressive effect

Q: And the “salivary secretion suppressive effect compared with placebo group” value ([2]; Day 1 of application, listed as glycopyrronium salicylate)?
A: strongest and significant salivary secretion suppressive effect

Q: What about the “salivary secretion suppressive effect compared with placebo group” value ([2]; Day 2 of application, listed as glycopyrronium salicylate) of the same compound?
A: strongest and significant salivary secretion suppressive effect

Q: With Glycopyrronium acetate as the compound, how does the decomposition in ethanol [3] read?
A: 20%
